From patent US10947237B2, “Antimicrobial compounds and methods of making and using the same” (BIOVERSYS AG, priority 2015, dated 2021) come the findings set out here.

The test system of assay [1] is Eschericia coli (E. Coli) strain ATCC25922. As to the kind of experiment: standard microdilution assay, minimum inhibitory concentration (MIC). The note with it: Escherichia coli; Table 2; strain ATCC25922. It counts as cell-based. As to the method:
(§1) The in vitro activity of the compounds of the present disclosure can be determined. Antimicrobial testing is typically performed to determine the minimum inhibitory concentration (MIC). Minimum inhibitory concentrations (MICs) are determined by the microdilution method in a final volume of 100 μl according to protocols outlined by The Clinical and Laboratory Standards Institute (CLSI). Performance standards for reference strains are assessed within the same experimental design to maintain quality control. See, for example, Clinical Laboratory Standards Institute: Methods for dilution antimicrobial susceptibility tests for bacteria that grow aerobically M7-A8. Approved Standard-Eighth Edition. Wayne, Pa.: CLSI; December 2008; and Clinical Laboratory Standards Institute: Performance Standards for Antimicrobial Susceptibility Testing M100-S20; Approved Standard-Twentieth Edition. Wayne, Pa.: CLSI; June 2010. The compounds of the present disclosure were tested for antimicrobial activity. The Compounds 1-149 were run against Eschericia coli (E. Coli) strain ATCC25922 and against Staphylococcus aureus (S. aureus) 11540 strain using a standard microdilution assay to determine minimum inhibitory concentrations (MICs). […] It will be recognized by one skilled in the art that the compounds can be assessed against other bacterial organisms and that the presentation of data for activity against Eschericia coli and Staphylococcus aureus are illustrative and in no way is intended to limit the scope of the present disclosure. The compounds of the present disclosure can be assayed against a range of other microorganisms depending upon the performance activity desired to be gathered. Furthermore, the “+” and “−” representation and the selection of a cutoff value of 16 micrograms/mL is also illustrative and in no way is intended to limit the scope of the present disclosure.
(Dilution methods test growth across graded concentrations, often in twofold steps.)

The test system of assay [2] is Staphylococcus aureus (S. aureus) 11540 strain. Described as above. It counts as cell-based. The note with it: Table 2, 11540 strain. As to the method:
as §1

A word on the MIC: it is the lowest concentration that inhibits growth of the organism. Turning to `C[C@H](N)CCCc1cc(Cl)c(F)c(-c2cc3cn(-c4ccc(CN[C@H](CCNC(=N)N)CNc5ccon5)cc4)c(=O)nc3[nH]2)c1` [Compound 33], the minimal inhibitory concentration (MIC) in assay [1] and in assay [2] was at most 16 µg/mL throughout.
With `C[C@H](N)CCCc1cc(Cl)c(F)c(-c2cc3cn(-c4ccc([C@@H]5CCC[C@@H](CCNC(=N)N)C5)cc4)c(=O)nc3[nH]2)c1` [Compound 34], the MIC in assay [1] and in assay [2] was at most 16 µg/mL each time.
In the case of `C[C@H](N)CCCc1cc(Cl)c(F)c(-c2cc3cn(-c4ccc([C@H]5CCC[C@H](CCNC(=N)N)C5)cc4)c(=O)nc3[nH]2)c1` [Compound 35], the MIC in assay [1] and in assay [2] was at most 16 µg/mL in each case.
Regarding `C[C@H](N)CCCc1cc(Cl)c(F)c(-c2cc3cn(-c4ccc(CN[C@H](CCNC(=N)N)CNc5cccc6sccc56)cc4)c(=O)nc3[nH]2)c1` [Compound 36], the MIC in assay [1] and in assay [2] was at most 16 µg/mL each time.
With `C[C@H](N)CCCc1cc(Cl)c(F)c(-c2cc3cn(-c4ccc(CN[C@H](CCNC(=N)N)CNc5nc6ccccc6[nH]5)cc4)c(=O)nc3[nH]2)c1` [Compound 37], the MIC in assay [1] and in assay [2] was at most 16 µg/mL in each case.
In the case of `C[C@H](N)CCCc1cc(Cl)c(F)c(-c2cc3cn(-c4ccc(CN[C@H](CCNC(=N)N)CNc5ncns5)cc4)c(=O)nc3[nH]2)c1` [Compound 38], the MIC in assay [1] and in assay [2] was at most 16 µg/mL each time.
For `COc1ccc(NC[C@@H](CCNC(=N)N)NCc2ccc(-n3cc4cc(-c5cc(CCC[C@H](C)N)cc(Cl)c5F)[nH]c4nc3=O)cc2)nn1` [Compound 39], the minimum inhibitory concentration (MIC) in assay [1] and in assay [2] was at most 16 µg/mL in each case.
Turning to `C[C@H](N)CCCc1cc(Cl)c(F)c(-c2cc3cn(-c4ccc(CN[C@H](CCNC(=N)N)CNc5ccc(=O)[nH]n5)cc4)c(=O)nc3[nH]2)c1` [Compound 40], the MIC in assay [1] and in assay [2] was at most 16 µg/mL in each case.
Consider `Cc1nc(NCC[C@H]2CCC[C@H](c3ccc(-n4cc5cc(-c6cc(CCC[C@H](C)N)cc(Cl)c6F)[nH]c5nc4=O)cc3)N2)[nH]c1C` [Compound 41], for which the minimum inhibitory concentration (MIC) in assay [1] and in assay [2] was at most 16 µg/mL throughout.
For `Cc1nc(NCC[C@@H]2CCC[C@@H](c3ccc(-n4cc5cc(-c6cc(CCC[C@H](C)N)cc(OC(F)(F)F)c6F)[nH]c5nc4=O)cc3)N2)[nH]c1C` [Compound 42], the minimum inhibitory concentration (MIC) in assay [1] and in assay [2] was at most 16 µg/mL each time.
On to `C[C@H](N)CCCc1cc(Cl)c(F)c(-c2cc3cn(-c4ccc([C@@H]5CCC[C@@H](CCNc6nc7ccccc7[nH]6)N5)cc4)c(=O)nc3[nH]2)c1` [Compound 43], for which the MIC in assay [1] and in assay [2] was at most 16 µg/mL throughout.
In the case of `C[C@H](N)CCCc1cc(Cl)c(F)c(-c2cc3cn(-c4ccc([C@H]5CCC[C@H](CCNc6nc7ccccc7[nH]6)N5)cc4)c(=O)nc3[nH]2)c1` [Compound 44], the minimal inhibitory concentration (MIC) in assay [1] and in assay [2] was at most 16 µg/mL in each case.
On to `C[C@H](N)CCCc1cc(Cl)c(F)c(-c2cc3cn(-c4ccc(CN[C@H](CCNC(=N)N)Cc5ncon5)cc4)c(=O)nc3[nH]2)c1` [Compound 45], for which the MIC in assay [1] and in assay [2] was at most 16 µg/mL each time.
For the compound `C[C@H](N)CCCc1cc(Cl)c(F)c(-c2cc3cn(-c4ccc(CN[C@H](CCNC(=N)N)CNc5cc(=O)cc[nH]5)cc4)c(=O)nc3[nH]2)c1` [Compound 46], the MIC in assay [1] and in assay [2] was at most 16 µg/mL each time.
Regarding `COc1ccnc(NC[C@@H](CCNC(=N)N)NCc2ccc(-n3cc4cc(-c5cc(CCC[C@H](C)N)cc(Cl)c5F)[nH]c4nc3=O)cc2)c1` [Compound 47], the MIC in assay [1] and in assay [2] was at most 16 µg/mL each time.
For `C[C@H](N)CCCc1cc(Cl)c(F)c(-c2cc3cn(-c4ccc(CN[C@H](CCNC(=N)N)CNc5cnccn5)cc4)c(=O)nc3[nH]2)c1` [Compound 48], the MIC in assay [1] and in assay [2] was at most 16 µg/mL each time.
On to `C[C@H](N)CCCc1cc(Cl)c(F)c(-c2cc3cn(-c4ccc(CN[C@H](CCNC(=N)N)CNc5nnn[nH]5)cc4)c(=O)nc3[nH]2)c1` [Compound 49], for which the minimum inhibitory concentration (MIC) in assay [1] and in assay [2] was at most 16 µg/mL each time.
As for `Cc1nc(NC[C@@H](CCNC(=N)N)NCc2ccc(-n3cc4cc(-c5cc(CCC[C@H](C)N)cc(Cl)c5F)[nH]c4nc3=O)cc2)sc1C` [Compound 50], the MIC in assay [1] and in assay [2] was at most 16 µg/mL each time.
Turning to `Cc1nnc(NC[C@@H](CCNC(=N)N)NCc2ccc(-n3cc4cc(-c5cc(CCC[C@H](C)N)cc(Cl)c5F)[nH]c4nc3=O)cc2)o1` [Compound 51], the minimal inhibitory concentration (MIC) in assay [1] and in assay [2] was at most 16 µg/mL in each case.
For `Cc1nc(NCC[C@H]2CCC[C@H](c3ccc(-n4cc5cc(-c6cc(CCC[C@H](C)N)cc(OC(F)(F)F)c6F)[nH]c5nc4=O)cc3)N2)[nH]c1C` [Compound 53], the minimal inhibitory concentration (MIC) in assay [1] and in assay [2] was at most 16 µg/mL in each case.
Take `C[C@H](N)CCCc1cc(Cl)c(F)c(-c2cc3cn(-c4ccc(CN[C@H](CCNC(=N)N)CNc5cccnc5)cc4)c(=O)nc3[nH]2)c1` [Compound 54]: the minimum inhibitory concentration (MIC) in assay [1] and in assay [2] was at most 16 µg/mL each time.
On to `Cc1nnc(NC[C@@H](CCNC(=N)N)NCc2ccc(-n3cc4cc(-c5cc(CCC[C@H](C)N)cc(Cl)c5F)[nH]c4nc3=O)cc2)[nH]1` [Compound 55], for which the minimal inhibitory concentration (MIC) in assay [1] and in assay [2] was at most 16 µg/mL throughout.
Take `C[C@H](N)CCCc1cc(Cl)c(F)c(-c2cc3cn(-c4ccc(CN[C@H](CCNC(=N)N)CNc5nc6cnccc6o5)cc4)c(=O)nc3[nH]2)c1` [Compound 56]: the MIC in assay [1] and in assay [2] was at most 16 µg/mL throughout.
`C[C@H](N)CCCc1cc(Cl)c(F)c(-c2cc3cn(-c4ccc(CN[C@@H](CCN)CCNC(=N)N)cc4)c(=O)nc3[nH]2)c1` [Compound 57]: the minimum inhibitory concentration (MIC) in assay [1] and in assay [2] was at most 16 µg/mL each time.
Regarding `C[C@H](N)CCCc1cc(Cl)c(F)c(-c2cc3cn(-c4ccc(CN[C@H](CCNC(=N)N)CNc5ccncc5)cc4)c(=O)nc3[nH]2)c1` [Compound 58], the MIC in assay [1] and in assay [2] was at most 16 µg/mL each time.
As for `C[C@H](N)CCCc1cc(Cl)c(F)c(-c2cc3cn(-c4ccc(CO[C@H](CO)CCNC(=N)N)cc4)c(=O)nc3[nH]2)c1` [Compound 59], the minimum inhibitory concentration (MIC) in assay [1] and in assay [2] was at most 16 µg/mL throughout.
With `C[C@H](N)CCCc1cc(Cl)c(F)c(-c2cc3cn(-c4ccc(CO[C@@H](CCNC(=N)N)CNc5nccs5)cc4)c(=O)nc3[nH]2)c1` [Compound 60], the MIC in assay [1] and in assay [2] was at most 16 µg/mL in each case.
As for `C[C@H](N)CCCc1cc(Cl)c(F)c(-c2cc3cn(-c4ccc(CN[C@H](CCNC(=N)N)CC(N)=O)cc4)c(=O)nc3[nH]2)c1` [Compound 61], the MIC in assay [1] and in assay [2] was at most 16 µg/mL in each case.
With `C[C@H](N)CCCc1cc(Cl)c(F)c(-c2cc3cn(-c4ccc(CN[C@H](CCNC(=N)N)CNc5ccc[nH]c5=O)cc4)c(=O)nc3[nH]2)c1` [Compound 62], the MIC in assay [1] and in assay [2] was at most 16 µg/mL each time.
`COc1ncccc1NC[C@@H](CCNC(=N)N)NCc1ccc(-n2cc3cc(-c4cc(CCC[C@H](C)N)cc(Cl)c4F)[nH]c3nc2=O)cc1` [Compound 63]: the minimal inhibitory concentration (MIC) in assay [1] and in assay [2] was at most 16 µg/mL each time.
As to `C[C@H](N)CCCc1cc(Cl)c(F)c(-c2cc3cn(-c4ccc(CO[C@H](CCNC(=N)N)CNC(=N)N)cc4)c(=O)nc3[nH]2)c1` [Compound 64], the MIC in assay [1] and in assay [2] was at most 16 µg/mL throughout.
In the case of `Cc1ccncc1NC[C@@H](CCNC(=N)N)NCc1ccc(-n2cc3cc(-c4cc(CCC[C@H](C)N)cc(Cl)c4F)[nH]c3nc2=O)cc1` [Compound 65], the minimum inhibitory concentration (MIC) in assay [1] and in assay [2] was at most 16 µg/mL in each case.
For the compound `C[C@H](N)CCCc1cc(Cl)c(F)c(-c2cc3cn(-c4ccc(CO[C@@H](C)CCNC(=N)N)cc4)c(=O)nc3[nH]2)c1` [Compound 66], the MIC in assay [1] and in assay [2] was at most 16 µg/mL each time.
Regarding `CC(=N)NC[C@@H](CCNC(=N)N)NCc1ccc(-n2cc3cc(-c4cc(CCC[C@H](C)N)cc(Cl)c4F)[nH]c3nc2=O)cc1` [Compound 67], the minimum inhibitory concentration (MIC) in assay [1] and in assay [2] was at most 16 µg/mL each time.
In the case of `C[C@H](N)CCCc1cc(Cl)c(F)c(-c2cc3cn(-c4ccc(CO[C@@H](CN)CCNC(=N)N)cc4)c(=O)nc3[nH]2)c1` [Compound 68], the MIC in assay [1] and in assay [2] was at most 16 µg/mL in each case.
`C[C@H](N)CCCc1cc(Cl)c(F)c(-c2cc3cn(-c4ccc([C@@H]5CC[C@@H](CNC(=N)N)O5)cc4)c(=O)nc3[nH]2)c1` [Compound 69]: the minimal inhibitory concentration (MIC) in assay [1] and in assay [2] was at most 16 µg/mL in each case.
In the case of `C[C@H](N)CCCc1cc(Cl)c(F)c(-c2cc3cn(-c4ccc([C@@H]5CC[C@H](CNC(=N)N)O5)cc4)c(=O)nc3[nH]2)c1` [Compound 70], the minimum inhibitory concentration (MIC) in assay [1] and in assay [2] was at most 16 µg/mL throughout.
With `C[C@H](N)CCCc1cc(Cl)c(F)c(-c2cc3cn(-c4ccc(CO[C@@H](CO)CCNC(=N)N)cc4)c(=O)nc3[nH]2)c1` [Compound 71], the MIC in assay [1] and in assay [2] was at most 16 µg/mL throughout.
